Values quoted from earlier work as cited in US6852335B2, “Folic acid in solid dosage forms” (Shaklee Corporation, priority 1999, dated 2005).

Conditions: 25° C. (The Merck Index, 12th edition)

In the case of `Nc1nc2ncc(CNc3ccc(C(=O)N[C@@H](CCC(=O)O)C(=O)O)cc3)nc2c(=O)[nH]1` [Folic acid], the solubility in water is given as “approximately 1.6 mcg/ml”.
